Results on 2 compounds are retold here after patent US20260314597A1, “A NOVEL APPROACH TO INTERFERE IN THE PHENYLPROPANOID BIOSYNTHETIC PATHWAY TO REDUCE PINK-RIB DISORDER IN FRESH LETTUCE” (University of Florida Research Foundation, Inc., priority 2022, published 2026).

SMILES strings stand for the structures. “Also recorded” adds a separate entry of the source. Where two headings read alike, the source gives them in different places. Some results are limits rather than exact numbers.

For assay [1], the system named is fresh-cut fennel. Particulars: L-cysteine 0.5% or 41.3 mM; 6 d at 5° C.; cited from earlier work.
Assay [2] has as its system PPO. Particulars: role: inhibitor; L-cysteine; cited from earlier work.
In assay [3] the test system is PPO. The settings on record: role: inhibitor; L-cysteine 1 to 5 mM; cited from earlier work.
Assay [4] deals with PPO. The settings on record: role: inhibitor; L-cysteine 1% or 82.5 mM; after 2 d and up to 8 d at 1° C.; cited from earlier work.
In assay [5] the test system is fresh-cut iceberg lettuce. Particulars: cited from earlier work.
Assay [6] concerns PPO. The settings on record: melatonin 0.1 mM; after 2 d; cited from earlier work.
In assay [7] the test system is PAL. Particulars: melatonin 0.1 mM; after 2 d at 4° C.; cited from earlier work.
The subject of assay [8] is romaine lettuce midribs. The assay can be described thus: Pink rib discoloration of romaine midribs / whole leaflets dipped 1 min, stored at 10° C. The format is in vivo. The procedure: Pink rib discoloration in excised midrib segments of romaine lettuce was shown above. […] 4.3 mM of melatonin solution was prepared in water containing 0.5% DMSO (dimethyl sulfoxide), and control samples were treated with water containing 0.5% DMSO.
1 mM of melatonin solution was prepared in water containing 0.5% DMSO (dimethyl sulfoxide) and control samples were treated with water containing 0.5% DMSO.

For assay [9], the system named is cassava roots. The settings on record: melatonin 0.1 mM, cited from earlier work.
Assay [10] has as its system key enzymes in the melatonin biosynthesis pathway. Particulars: strawberry; cited from earlier work.
Assay [11] has as its system PPO. Particulars: melatonin 0.4 mM; litchi pericarp; up to 6 d; cited from earlier work.
Assay [12] relates to loquat. Particulars: melatonin; 25 d storage at 4° C.; cited from earlier work.
Assay [13] has as its system metabolites in wounded Romaine lettuce midrib. The assay can be described thus: Untargeted LC-MS/MS metabolomics of melatonin-treated wounded midribs (Test 3). Format: in vivo, lettuce (Romaine 'Manatee'). The procedure: For Test 1, the evaluations for pink rib development, protein quantification, and enzyme activity were conducted with Romaine and iceberg lettuce heads (36 heads per type; cultivars unknown) purchased (February 2020) upon arrival at a local grocery store in Gainesville, FL, and immediately transported to the Postharvest Horticulture Laboratory at the University of Florida in Gainesville, FL. For Test 2, metabolite extraction and detection were conducted with commercially grown, harvested, and cooled Romaine (‘Tall Guzmaine’) and iceberg (‘Chosen’) lettuce (December 2020) grown in Belle Glade, FL. For Test 3, untargeted metabolomics was performed using commercially grown, harvested, and cooled Romaine (‘Manatee’) lettuce grown in Belle Glade, FL (April 2021). To keep the lettuce head samples cool while preventing freeze damage during transport, a 3- to 6-inch layer of crushed ice was placed on the bottom of each 114-L cooler. A piece of waxed, corrugated fiberboard was placed on top of the ice prior to packing with the lettuce samples for transport the same day to the Postharvest Horticulture Laboratory in Gainesville (approximately 4 h distant).
In all tests, experimental setup began immediately upon arrival to the laboratory. 90 outer leaves were randomly selected from 18 to 22 lettuce heads that met commercial and damage-free quality standards. A midrib segment (12.5 cm) was excised from the center of each leaf and excess leaf blade tissue was trimmed parallel to the midrib. This procedure was adapted from the wounding procedure of Cantwell (2016). Each midrib was then partially sliced transversally at 1.3-cm increments along the midrib. Midribs (n=15) were immediately immersed for 30 s in one of five treatment solutions: deionized water (wounded control), L-cysteine (4.1 mM), naringenin (1.8 mM) with 20% dimethyl sulfoxide (DMSO), serotonin (2.8 or 5.7 mM) or melatonin (4.3 mM) with 0.50% DMSO. Immediately following immersion, the midribs for each treatment were patted dry using paper towels and placed (n=5) in a breathable, high-density polyethylene bag (n=3) (Narrow Profile Produce Bags [14×18 inches] Model No. S-19156, Uline®, Pleasant Prairie, WI). Unwounded control midribs were stored in the same manner. To allow for direct comparison, each cut site on each midrib was assigned an initial discoloration value on day 1 based on the coloration of the rib. Samples were stored at 5° C. with 95-98% relative humidity (RH) for 5 d, simulating commercial storage.
Unwounded, wounded, and compound-treated wounded midrib samples were collected for untargeted metabolite analysis to identify global metabolite changes in response to melatonin application and targeted metabolite analysis to quantify chlorogenic acid a major caffeoyl compound in lettuce. For both targeted and untargeted metabolite analyses, fresh samples (500-800 mg) of the midribs from each treatment (n=3) were weighed, then immediately frozen in liquid nitrogen and stored at −80° C. for subsequent metabolite extraction. Frozen samples were extracted with a 50% methanol extraction solution containing a 1:1 (v:v) of methanol with deionized water. Samples were completely submerged in a 1:1.5 (w:v) of the sample weight (mg) to extraction solution volume (μL), respectively, and incubated at 65° C. for 90 min and then centrifuged at 9660×g for 10 min (MC-12 High Speed Micro Centrifuge, Benchmark Scientific, Edison, NJ). The supernatant was transferred to a new tube and filtered with a 0.45 μm filter (Choice, Thermo Scientific, Wilmington, DE). An aliquot of 400 μL was vacuum-dried.
For untargeted metabolite analysis, vacuum-dried samples were resuspended into 100 μL of 50% methanol solution containing an internal standard umbelliferon (18 μg mL^−1) and vortexed for 1 min. After centrifugation at 13,000×g for 15 min, the solutions were transferred to sample inserts and analyzed. […]

Assay [14] relates to PAL. Particulars: melatonin; 25 d storage at 4° C.; cited from earlier work.

As to `N[C@@H](CS)C(=O)O` [L-cysteine], the “effect on browning of fennel” value in assay [1] was “no effect; also recorded: ineffective”. In addition, the PPO activity entry is recorded as “inhibited PPO activity” in assay [2], “linear decline in PPO activity” in assay [3] and “significantly declined” in assay [4]. Further, the “reduction of discoloration of midrib surface area” value in [5] (L-cysteine 8.3 mM, 6 d at 8° C., vs control) is listed as “greater than 80%”. Further, in assay [5] (L-cysteine 0.1% or 8.3 mM, 8° C., untreated discolored after 2 d), the “delay of pink rib development” value was 6 days. In [5] (L-cysteine 0.1% or 8.3 mM, 6 d at 8° C.), the “pink rib development, share of midrib surface area” value was < 20 % of the midrib surface area.

As to `COc1ccc2[nH]cc(CCNC(C)=O)c2c1` [melatonin], the PPO activity result in [6] was “significantly lower”; in [11], “significant decrease”. In addition, the figures for the PAL activity result in [7] and in [14] were “higher” and “increased”, respectively. The “pink rib discoloration vs control” value is “less pink rib discoloration than control samples” in [8] (melatonin 1 mM in 0.5% DMSO, 4 days) and “less pink rib discoloration than control samples” in assay [8] (melatonin 4.3 mM in 0.5% DMSO, five days, whole leaflet). Also, the “time to which vascular streaking disorder was delayed” value in [9] (28° C., untreated control 6 h) was 12 h. For the same compound, the “delay of vascular streaking / discoloration” value in assay [9] (vs untreated control) is listed as “delayed development of discoloration; also recorded: delayed twice as long as untreated control slices”. The “key enzymes in the melatonin biosynthesis pathway” value in assay [10] is on record as “Upregulation”. In addition, in assay [12], the chlorogenic acid concentration result is on record as “increased”. Moreover, the quality and lignification result in assay [12] is “maintaining quality and delaying lignification”. The “effect on wounding-related metabolite changes” value in assay [13] (Romaine, wounded midrib) is given as “reduces overall metabolite changes in wounded lettuce midrib; also recorded: substantially affected wounding-related metabolite changes”. Besides, the “chlorogenic acid abundance, melatonin-treated vs wounded” value in assay [13] (Romaine, LC/MS) is given as “remained similar”. In [13] (of 25 diminished compounds), the “number of wounding-diminished compounds increased with melatonin” value was determined as 16 compounds. The “number of wounding-diminished compounds remaining decreased” value in assay [13] (of 25 diminished compounds, vs untreated wounded samples) is on record as 9 compounds. Further, the “number of wounding-accumulated compounds reduced in abundance upon melatonin” value in assay [13] (of 68 accumulated compounds) is 64 compounds. Also, the “number of wounding-accumulated compounds that maintained high abundancy” value in assay [13] (of 68 accumulated compounds) is “four”.
